{"source": "patent US8609635B2", "about": "“Fused tricyclic silyl compounds and methods of use thereof for the treatment of viral diseases” (priority 2010, dated 2013)", "key": {"[1]": {"system": "HCV chimeric replicon with NS5A of genotype 4a (DQ41878)", "test": "Cell-based HCV replicon assay (TaqMan), chimeric replicon genotype 4a (DQ41878)", "conditions": "Hepatitis C virus, 72 h, read-out: HCV replicon EC50 4a (DQ41878)", "procedure": "(§1) Measurement of inhibition by compounds of the present invention was performed using the HCV replicon system. Several different replicons encoding different HCV genotypes or mutations were used. In addition, potency measurements were made using different formats of the replicon assay, including different ways of measurements and different plating formats. See Jan M. Vrolijk et al., A replicons-based bioassay for the measurement of interferons in patients with chronic hepatitis C, 110 J. VIROLOGICAL METHODS 201 (2003); Steven S. Carroll et al., Inhibition of Hepatitis C Virus RNA Replication by 2′-Modified Nucleoside Analogs, 278(14) J. BIOLOGICAL […] 11979 (2003). However, the underlying principles are common to all of these determinations, and are outlined below.\n(§2) Compounds of the present invention were assayed for cell-based anti-HCV activity using the following protocol. Replicon cells were seeded at 5000 cells/well in 96-well collagen I-coated Nunc plates in the presence of the test compound. Various concentrations of test compound, typically in 10 serial 2-fold dilutions, were added to the assay mixture, with the starting concentration ranging from 250 μM to 1 μM. The final concentration of DMSO was 0.5%, fetal bovine serum was 5%, in the assay media. Cells were harvested on day 3 by the addition of 1× cell lysis buffer (Ambion cat #8721). The replicon RNA level was measured using real time PCR (TaqMan® assay). The amplicon was located in 5B. The PCR primers were: 5B.2F, […] (SEQ. ID NO. 1); 5B.2R, […] (SEQ. ID NO. 2); the probe sequence was FAM-labeled […] (SEQ. ID NO. 3). GAPDH RNA was used as endogenous control and was amplified in the same reaction as NS5B (multiplex PCR) using primers and VIC-labeled probe recommended by the manufacturer (PE Applied Biosystem). The real-time RT-PCR reactions were run on ABI PRISM 7900HT Sequence Detection System using the following program: 48° C. for 30 minutes, 95° C. for 10 minutes, 40 cycles of 95° C. for 15 sec, 60° C. for 1 minute. The ΔCT values (CT5B-CTGAPDH) were plotted against the concentration of test compound and fitted to the sigmoid dose-response model using XLfit4 (MDL). […] Alternatively, to quantitate the absolute amount of replicon RNA, a standard curve was established by including serially diluted T7 transcripts of replicon RNA in the Taqman assay. All TaqMan® reagents were from PE Applied Biosystems. Such an assay procedure was described in detail in e.g. Malcolm et al., Antimicrobial Agents and Chemotherapy 50: 1013-1020 (2006).\n(§3) Wherein gt1a_H77 was prepared as described in Yi et al., J Virol. 2004, 78(15):7904-15; gt1b_con1 was prepared as described in Lohmann et al., Science 1999, 285(5424):110-3; and gt2a_JFH was prepared as described in Kato et al., Gastroenterology. 2003, 125(6):1808-17. Chimeric replicons contain NS5A from patient isolates of genotypes 1a, 1b, 2b, 3a and 4a as indicated."}, "[2]": {"system": "HCV replicon gt1b_con1", "test": "Cell-based HCV replicon assay (TaqMan), genotype 1b (Con1)", "conditions": "replicon 1b (Con1), replicon RNA by TaqMan, day 3", "procedure": "as §1, §2, §3"}, "[3]": {"system": "HCV replicon 1a (Y93H) mutant", "test": "Cell-based HCV replicon assay (TaqMan), genotype 1a mutant Y93H", "conditions": "read-out: HCV replicon EC50 1a (Y93H)", "procedure": "as §1, §2, §3"}, "[4]": {"system": "HCV chimeric replicon with NS5A of genotype 3a (NC00982)", "test": "Cell-based HCV replicon assay (TaqMan), chimeric replicon genotype 3a (NC00982)", "conditions": "replicon RNA by TaqMan, day 3", "procedure": "as §1, §2, §3"}, "[5]": {"system": "HCV replicon gt2a_JFH", "test": "Cell-based HCV replicon assay (TaqMan), genotype 2a (JFH)", "conditions": "replicon 2a (JFH), replicon RNA by TaqMan, day 3", "procedure": "as §1, §2, §3"}, "[6]": {"system": "HCV replicon gt1a_H77", "test": "Cell-based HCV replicon assay (TaqMan), genotype 1a (H77)", "conditions": "replicon 1a (H77), replicon RNA by TaqMan, day 3", "procedure": "as §1, §2, §3"}, "[7]": {"conditions": "Hepatitis C virus, 72 h, read-out: HCV replicon EC50 3a (NC00982), chimeric replicon 3a (NC00982)"}}, "note": "Where two headings read alike, the source gives them in different places."}
{"smiles": "CC(C)[C@H](NC(=O)OC1(C)CC1)C(=O)N1C[Si](C)(C)C[C@@H]1c1ncc(-c2ccc(-c3ccc4c(ccc5nc([C@H]6C[C@H](F)CN6C(=O)[C@@H](NC(=O)OC6(C)CC6)C(C)C)[nH]c54)c3)c(F)c2)[nH]1", "note": "[Compound 83]", "values": [{"measurement": "EC50", "setting": "[1]", "value": "> 100", "unit": "nM"}, {"measurement": "EC50", "setting": "[2]; Hepatitis C virus, 72 h", "value": 52, "unit": "nM"}, {"measurement": "EC50", "setting": "[3]; Hepatitis C virus, 72 h", "value": "> 1000", "unit": "nM"}, {"measurement": "EC50", "setting": "[4]; [7]", "value": "> 100", "unit": "nM"}, {"measurement": "EC50", "setting": "[5]; Hepatitis C virus, 72 h", "value": "> 10", "unit": "nM"}, {"measurement": "EC50", "setting": "[6]; Hepatitis C virus, 72 h", "value": "> 1", "unit": "nM"}]}
{"smiles": "COC(=O)N[C@H](C(=O)N1C[Si](C)(C)C[C@H]1c1ncc(-c2ccc(-c3ccc4c(ccc5nc([C@@H]6CCCN6C(=O)[C@@H](NC(=O)OC)C(C)C)[nH]c54)c3)cc2OCCOC(C)=O)[nH]1)C(C)C", "note": "[Compound 45]", "values": [{"measurement": "EC50", "setting": "[2]; Hepatitis C virus, 72 h", "value": 0.009, "unit": "nM"}, {"measurement": "EC50", "setting": "[3]; Hepatitis C virus, 72 h", "value": 2640, "unit": "nM"}, {"measurement": "EC50", "setting": "[4]; [7]", "value": 52, "unit": "nM"}, {"measurement": "EC50", "setting": "[5]; Hepatitis C virus, 72 h", "value": "> 10", "unit": "nM"}, {"measurement": "EC50", "setting": "[6]; Hepatitis C virus, 72 h", "value": "> 1", "unit": "nM"}]}
{"smiles": "COC(=O)N[C@H](C(=O)N1C[Si](C)(C)C[C@H]1c1ncc(-c2ccc(-c3ccc4c(ccc5nc([C@@H]6CCCN6C(=O)[C@@H](NC(=O)OC)C(C)C)[nH]c54)c3)cc2C2CC2)[nH]1)C(C)C", "note": "[Compound 47]", "values": [{"measurement": "EC50", "setting": "[2]; Hepatitis C virus, 72 h", "value": 0.007, "unit": "nM"}, {"measurement": "EC50", "setting": "[3]; Hepatitis C virus, 72 h", "value": 1600, "unit": "nM"}, {"measurement": "EC50", "setting": "[4]; [7]", "value": 5.5, "unit": "nM"}, {"measurement": "EC50", "setting": "[5]; Hepatitis C virus, 72 h", "value": 1.7, "unit": "nM"}, {"measurement": "EC50", "setting": "[6]; Hepatitis C virus, 72 h", "value": 0.4, "unit": "nM"}]}
{"smiles": "COC(=O)N[C@H](C(=O)N1C[Si](C)(C)C[C@H]1c1ncc(-c2ccc(-c3ccc4c(ccc5nc([C@@H]6CC(F)(F)CN6C(=O)[C@@H](NC(=O)OC)C(C)C)[nH]c54)c3)cn2)[nH]1)C(C)C", "note": "[Compound 72]", "values": [{"measurement": "EC50", "setting": "[2]; Hepatitis C virus, 72 h", "value": 0.004, "unit": "nM"}, {"measurement": "EC50", "setting": "[3]; Hepatitis C virus, 72 h", "value": 246, "unit": "nM"}, {"measurement": "EC50", "setting": "[4]; [7]", "value": 2.41, "unit": "nM"}, {"measurement": "EC50", "setting": "[5]; Hepatitis C virus, 72 h", "value": 0.496, "unit": "nM"}, {"measurement": "EC50", "setting": "[6]; Hepatitis C virus, 72 h", "value": 0.1, "unit": "nM"}]}
{"smiles": "COC(=O)NC(C(=O)N1C[Si](C)(C)CC1c1ncc(-c2ccc(-c3ccc4c(ccc5nc([C@@H]6C7CCC(C7)N6C(=O)C(NC(=O)OC)C(C)C)[nH]c54)c3)cc2)[nH]1)C(C)C", "note": "(some centres unmarked) [Compound 16]", "values": [{"measurement": "EC50", "setting": "[2]; Hepatitis C virus, 72 h", "value": 0.004, "unit": "nM"}, {"measurement": "EC50", "setting": "[3]; Hepatitis C virus, 72 h", "value": 146, "unit": "nM"}, {"measurement": "EC50", "setting": "[4]; [7]", "value": 0.23, "unit": "nM"}, {"measurement": "EC50", "setting": "[5]; Hepatitis C virus, 72 h", "value": 0.06, "unit": "nM"}, {"measurement": "EC50", "setting": "[6]; Hepatitis C virus, 72 h", "value": 0.04, "unit": "nM"}]}
{"smiles": "CC(C)[C@H](NC(=O)OC1(C)CC1)C(=O)N1CC(C)(C)C[C@H]1c1ncc(-c2ccc(-c3ccc4c(ccc5nc([C@@H]6C[Si](C)(C)CN6C(=O)[C@@H](NC(=O)OC6(C)CC6)C(C)C)[nH]c54)c3)cc2)[nH]1", "note": "[Compound 80]", "values": [{"measurement": "EC50", "setting": "[1]", "value": "> 100", "unit": "nM"}, {"measurement": "EC50", "setting": "[2]; Hepatitis C virus, 72 h", "value": "> 1", "unit": "nM"}, {"measurement": "EC50", "setting": "[3]; Hepatitis C virus, 72 h", "value": "> 1000", "unit": "nM"}, {"measurement": "EC50", "setting": "[4]; [7]", "value": "> 100", "unit": "nM"}, {"measurement": "EC50", "setting": "[5]; Hepatitis C virus, 72 h", "value": "> 10", "unit": "nM"}, {"measurement": "EC50", "setting": "[6]; Hepatitis C virus, 72 h", "value": "> 1", "unit": "nM"}]}
{"smiles": "COC(=O)N[C@H](C(=O)N1CC(F)(F)C[C@H]1c1ncc(-c2ccc3oc(-c4ccc5c(ccc6nc([C@@H]7C[Si](C)(C)CN7C(=O)[C@@H](NC(=O)OC)C(C)C)[nH]c65)c4)cc3c2)[nH]1)C(C)C", "note": "[Compound 42]", "values": [{"measurement": "EC50", "setting": "[2]", "value": 0.005, "unit": "nM"}, {"measurement": "EC50", "setting": "[3]; replicon 1a mutant Y93H, replicon RNA by TaqMan, day 3", "value": 103, "unit": "nM"}, {"measurement": "EC50", "setting": "[4]; chimeric replicon 3a (NC00982), read-out: HCV replicon EC50 3a (NC00982)", "value": 11.4, "unit": "nM"}, {"measurement": "EC50", "setting": "[5]", "value": "> 10", "unit": "nM"}, {"measurement": "EC50", "setting": "[6]", "value": 0.012, "unit": "nM"}]}
{"smiles": "COC(=O)NC(C(=O)N1C[Si](C)(C)CC1c1ncc(-c2ccc(-c3ccc4c(ccc5nc([C@@H]6CCCN6C(=O)C(NC(=O)OC)C(C)C)[nH]c54)c3)s2)[nH]1)C(C)C", "note": "(some centres unmarked) [Compound 20]", "values": [{"measurement": "EC50", "setting": "[2]; Hepatitis C virus, 72 h", "value": 0.004, "unit": "nM"}, {"measurement": "EC50", "setting": "[3]; Hepatitis C virus, 72 h", "value": 921, "unit": "nM"}, {"measurement": "EC50", "setting": "[4]; [7]", "value": 0.26, "unit": "nM"}, {"measurement": "EC50", "setting": "[5]; Hepatitis C virus, 72 h", "value": 0.3, "unit": "nM"}, {"measurement": "EC50", "setting": "[6]; Hepatitis C virus, 72 h", "value": 0.14, "unit": "nM"}]}
{"smiles": "COC(=O)N[C@H](C(=O)N1C[Si](C)(C)C[C@H]1c1ncc(-c2ccc(-c3ccc4c(ccc5nc([C@@H]6CCCN6C(=O)[C@@H](NC(=O)OC)C(C)C)[nH]c54)c3)cc2-c2ccncc2)[nH]1)C(C)C", "note": "[Compound 51]", "values": [{"measurement": "EC50", "setting": "[2]; Hepatitis C virus, 72 h", "value": 0.05, "unit": "nM"}, {"measurement": "EC50", "setting": "[3]; Hepatitis C virus, 72 h", "value": 8420, "unit": "nM"}, {"measurement": "EC50", "setting": "[4]; [7]", "value": "> 100", "unit": "nM"}, {"measurement": "EC50", "setting": "[5]; Hepatitis C virus, 72 h", "value": "> 10", "unit": "nM"}, {"measurement": "EC50", "setting": "[6]; Hepatitis C virus, 72 h", "value": "> 1", "unit": "nM"}]}
{"smiles": "COC(=O)N[C@H](C(=O)N1C[Si](C)(C)C[C@@H]1c1nc2ccc3cc(-c4ccc(-c5cnc([C@@H]6CC(C)(C)CN6C(=O)[C@@H](NC(=O)OC)C(C)C)[nH]5)cc4)ccc3c2[nH]1)C(C)C", "note": "[Compound 79]", "values": [{"measurement": "EC50", "setting": "[1]", "value": 0.45, "unit": "nM"}, {"measurement": "EC50", "setting": "[2]; Hepatitis C virus, 72 h", "value": 0.012, "unit": "nM"}, {"measurement": "EC50", "setting": "[3]; Hepatitis C virus, 72 h", "value": 351, "unit": "nM"}, {"measurement": "EC50", "setting": "[4]; [7]", "value": 4.4, "unit": "nM"}, {"measurement": "EC50", "setting": "[5]; Hepatitis C virus, 72 h", "value": 0.315, "unit": "nM"}, {"measurement": "EC50", "setting": "[6]; Hepatitis C virus, 72 h", "value": 0.127, "unit": "nM"}]}
